57 compounds from patent US20160002247A1, “8-SUBSTITUTED IMIDAZOPYRIMIDINONE DERIVATIVE HAVING AUTOTAXIN INHIBITORY ACTIVITY” (THE UNIVERSITY OF TOKYO, priority 2013, published 2016) can be followed below.

Structures are written as SMILES.

This assay addresses T1, Human autotaxin enzyme (Homo sapiens, UniProt Q13822).
T1 construct: purchased R&D System
The assay is described as follows: Evaluation of autotaxin inhibitor, Method C (Test Example 3): 18:0 Lyso PC, choline assay, Resorufin fluorescence. Format: biochemical. The following applies: Assay Method C (Test Example 3), human autotaxin, 18:0 Lyso PC substrate; read-out: Inhibitory Activity (autotaxin enzyme inhibitory activity, IC50 class). How it is done:
(Method C) Evaluation of Autotaxin Inhibitor
Solution B containing 100 mM Tris-HCl buffer (pH7.5), 150 mM NaCl, 5 mM MgCl2 and 0.05% Triton X-100 was prepared. Human autotaxin enzyme (purchased from R&D System) was diluted with Solution B, and 2.5 μL of which was added to a solution of test compound in DMSO. Furthermore, 2.5 μl of 200 μM 18:0 Lyso PC (purchased from Avanti Polar Lipids) in Solution B was added and allowed to react at room temperature for 2 hours. After completion of the reaction, 15 μL of the coline assay reagent (100 mM Tris-HCl buffer (pH7.5), 5 mM MgCl2, 77 μg/mL choline oxidase, 10 μg/mL peroxidase, 25 μM 10-acetyl-3,7-dihydroxyphenoxazine and excess autotaxin inhibitor) was added and allowed to react at room temperature for 20 minutes. The fluorescent dye Resorufin, which was produced by the reaction, was detected. The fluorescence was detected using ViewLux (PerkinElmer, Inc.) with an excitation wavelength of 531 nm and a fluorescence wavelength of 598 nm.
The percent inhibition of the test compound was calculated by assuming the sample with no test compound as 0% inhibition and the sample with no enzyme as 100% inhibition, and the percent inhibitions at different concentrations of the test compound were plotted to obtain a concentration-dependent curve.
What is called IC50 is the concentration needed to halve the response being measured. For the compound `CCCCCn1c(N2CCC(c3ccccc3)C2)cc(=O)n2cc(-c3ccc(Cl)cc3)nc12` (stereo not drawn) [Compound 327], the IC50 was in the range of 100 to 1000 nM. The same measure for `CCCCCn1c(N2CCCC(CN)C2)cc(=O)n2cc(-c3ccc(Cl)cc3)nc12` (stereo not drawn) [Compound 328]: 100 to 1000 nM.

As for `CCCCCn1c(N2CCC3CNCC32)cc(=O)n2cc(-c3ccc(Cl)cc3)nc12` (stereo not drawn) [Compound 329], the IC50 was in the range of 100 to 1000 nM.

As for `CCCCCn1c(N2CCC3(CNC3)C2)cc(=O)n2cc(-c3ccc(Cl)cc3)nc12` [Compound 330], the IC50 fell in the range of 100 to 1000 nM. With `CCCCCn1c(N2CC3CNCC3C2)cc(=O)n2cc(-c3ccc(Cl)cc3)nc12` (stereo not drawn) [Compound 331], the IC50 was in the range of 100 to 1000 nM. As for `CCCCCn1c(N2CCC(C3CNC3)C2)cc(=O)n2cc(-c3ccc(Cl)cc3)nc12` (stereo not drawn) [Compound 332], the IC50 was 100 to 1000 nM. With `CCCCCn1c(NC(C)=O)cc(=O)n2cc(-c3ccc(Cl)cc3)nc12` [Compound 333], the IC50 was in the range of 100 to 1000 nM. As for `CCCCCn1c(N2CCC[C@H]2C(=O)O)cc(=O)n2cc(-c3ccc(Cl)cc3)nc12` [Compound 334], the IC50 is over 1000 nM. The result for `CCCCCn1c(N2CCC[C@H]2C(=O)NCCCn2ccnc2)cc(=O)n2cc(-c3ccc(Cl)cc3)nc12` [Compound 335] reads 100 to 1000 nM; that for `CCCCCn1c(N2CCC[C@H]2C(=O)N(C)CCC#N)cc(=O)n2cc(-c3ccc(Cl)cc3)nc12` [Compound 336], 10 to 100 nM. For the compound `CCCCCn1c(N2CCC[C@H]2C(=O)N2CCC[C@H]2C(=O)O)cc(=O)n2cc(-c3ccc(Cl)cc3)nc12` [Compound 337], the IC50 was in the range of 10 to 100 nM. The same measure for `CCCCCn1c(N2CCC[C@H]2C(=O)NCCCOC)cc(=O)n2cc(-c3ccc(Cl)cc3)nc12` [Compound 338]: 10 to 100 nM; for `CCCCCn1c(N2CCC[C@H]2C(=O)NCCCO)cc(=O)n2cc(-c3ccc(Cl)cc3)nc12` [Compound 339]: 10 to 100 nM; for `CCCCCn1c(N2CCC[C@H]2C(=O)NCCC(=O)OC)cc(=O)n2cc(-c3ccc(Cl)cc3)nc12` [Compound 340]: 10 to 100 nM.

`CCCCCn1c(N2CCC[C@H]2C(=O)NCCN2CCCC2=O)cc(=O)n2cc(-c3ccc(Cl)cc3)nc12` [Compound 341]: the IC50 lay within 10 to 100 nM.

As to `CCCCCn1c(N2CCC[C@H]2C(=O)NCCn2ccnc2)cc(=O)n2cc(-c3ccc(Cl)cc3)nc12` [Compound 342], the IC50 is 100 to 1000 nM. For `CCCCCn1c(N2CCC[C@H]2C(=O)NCCC(=O)N2CCOCC2)cc(=O)n2cc(-c3ccc(Cl)cc3)nc12` [Compound 343], the IC50 is 10 to 100 nM.

Regarding `CCCCCn1c(N2CCC[C@H]2C(=O)NCCC(=O)N(C)C)cc(=O)n2cc(-c3ccc(Cl)cc3)nc12` [Compound 344], the IC50 is 100 to 1000 nM. The result for `CCCCCn1c(N2CCC[C@H]2C(=O)NCCCCC(=O)O)cc(=O)n2cc(-c3ccc(Cl)cc3)nc12` [Compound 345] reads under 10 nM; that for `CCCCCn1c(N2CCC[C@H]2C(=O)N(C)CCCO)cc(=O)n2cc(-c3ccc(Cl)cc3)nc12` [Compound 346], 10 to 100 nM; that for `CCCCCn1c(N2CCC[C@H]2C(=O)NC2(CC(=O)OC)CCOCC2)cc(=O)n2cc(-c3ccc(Cl)cc3)nc12` [Compound 347], 10 to 100 nM. As for `CCCCCn1c(N2CCC[C@H]2C(=O)NCC(=O)O)cc(=O)n2cc(-c3ccc(Cl)cc3)nc12` [Compound 348], the IC50 is under 10 nM. The same measure for `CCCCCn1c(N2CCC[C@H]2C(=O)N2CCCC2C(=O)O)cc(=O)n2cc(-c3ccc(Cl)cc3)nc12` (stereo partly drawn) [Compound 349]: under 10 nM; for `CCCCCn1c(N2CCC[C@H]2C(=O)NC(C)(C)CC(=O)O)cc(=O)n2cc(-c3ccc(Cl)cc3)nc12` [Compound 350]: under 10 nM.

In the case of `CCCCCn1c(N2CCC[C@H]2C(=O)NCCCN)cc(=O)n2cc(-c3ccc(Cl)cc3)nc12` [Compound 352], the IC50 was over 1000 nM. The same measure for `CCCCCn1c(N2CCC[C@H]2C(=O)N(C)CC(=O)O)cc(=O)n2cc(-c3ccc(Cl)cc3)nc12` [Compound 353]: under 10 nM; for `CCCCCn1c(N2CCC[C@H]2C(=O)NCCCC(=O)O)cc(=O)n2cc(-c3ccc(Cl)cc3)nc12` [Compound 354]: under 10 nM. The same measure for `CCCCCn1c(N2CCC[C@H]2C(=O)NCC(C)C(=O)O)cc(=O)n2cc(-c3ccc(Cl)cc3)nc12` (stereo partly drawn) [Compound 355]: under 10 nM; for `CCCCCn1c(N2CCC[C@H]2C(=O)NC(C)CC(=O)O)cc(=O)n2cc(-c3ccc(Cl)cc3)nc12` (stereo partly drawn) [Compound 356]: under 10 nM; for `CCCCCn1c(N(C)C(C)=O)cc(=O)n2cc(-c3ccc(Cl)cc3)nc12` [Compound 361]: over 1000 nM. The result for `CCCCCn1c(-c2ccc(C(=O)O)cc2)cc(=O)n2cc(-c3ccc(Cl)cc3)nc12` [Compound 362, 4-(2-(4-chlorophenyl)-5-oxo-8-pentyl-5,8-dihydroimidazo[1,2-a]pyrimidin-7-yl)benzoic acid] reads 10 to 100 nM; that for `CCCCCn1c(-c2ccc(C(=O)NCCNC(=O)OCc3ccccc3)cc2)cc(=O)n2cc(-c3ccc(Cl)cc3)nc12` [Compound 363, benzyl 2-(4-(2-(4-chlorophenyl)-5-oxo-8-pentyl-5,8-dihydroimidazo[1,2-a]pyrimidin-7-yl)benzamide)ethylcarbamate], 10 to 100 nM; that for `CCCCCn1c(-c2ccc(C(=O)NCCN)cc2)cc(=O)n2cc(-c3ccc(Cl)cc3)nc12` [Compound 364, N-(2-aminoethyl)-4-(2-(4-chlorophenyl)-5-oxo-8-pentyl-5,8-dihydroimidazo[1,2-a]pyrimidin-7-yl)benzamide], 10 to 100 nM.

With `CCCCCn1c(-c2ccc(C(=O)NCCN3CC4(COC4)C3)cc2)cc(=O)n2cc(-c3ccc(Cl)cc3)nc12` [Compound 365], the IC50 was in the range of 10 to 100 nM. Take `CCCCCn1c(-c2cnc(OC)nc2)cc(=O)n2cc(-c3ccc(Cl)cc3)nc12` [Compound 373]: the IC50 lay in the range of 10 to 100 nM. For `CCCCCn1c(-c2ccc(C(N)=O)cc2)cc(=O)n2cc(-c3ccc(Cl)cc3)nc12` [Compound 375], the 50% inhibitory concentration (IC50) was in the range of 10 to 100 nM.

For the compound `N#CCCCCn1c(-c2ccc(C(=O)NCCN3CCOCC3)cc2)cc(=O)n2cc(-c3ccc(C(F)(F)F)cc3)nc12` [Compound 376], the IC50 is 10 to 100 nM. For the compound `CN(C)CCNC(=O)c1ccc(-c2cc(=O)n3cc(-c4ccc(C(F)(F)F)cc4)nc3n2CCCCC#N)cc1` [Compound 377], the IC50 was 10 to 100 nM. The result for `CN(C)CCNC(=O)c1ccc(-c2cc(=O)n3cc(-c4ccc(Cl)cc4)nc3n2CCCCC#N)cc1` [Compound 378] reads 10 to 100 nM. Take `CN(C)CCNC(=O)c1ccc(-c2cc(=O)n3cc(-c4ccc(Cl)cc4)nc3n2CCCC(F)(F)F)cc1` [Compound 381]: the IC50 was in the range of 10 to 100 nM.

As to `NC(=O)c1ccc(-c2cc(=O)n3cc(-c4ccc(Cl)cc4)nc3n2CCCC(F)(F)F)cc1` [Compound 382], the IC50 lay in the range of 10 to 100 nM. The result for `O=C(NCCN1CCOCC1)c1ccc(-c2cc(=O)n3cc(-c4ccc(Cl)cc4)nc3n2CCCC(F)(F)F)cc1` [Compound 383] reads 10 to 100 nM. The same measure for `CN(C)CCNC(=O)c1ccc(-c2cc(=O)n3cc(-c4ccc(C#N)cc4)nc3n2CCCC(F)(F)F)cc1` [Compound 387]: 10 to 100 nM; for `N#Cc1ccc(-c2cn3c(=O)cc(-c4ccc(C(N)=O)cc4)n(CCCC(F)(F)F)c3n2)cc1` [Compound 388]: 10 to 100 nM; for `CCCCCn1c(-c2ccc(C(=O)NCCO)cc2)cc(=O)n2cc(-c3ccc(Cl)cc3)nc12` [Compound 390]: 10 to 100 nM.

For the compound `CCCCCn1c(-c2ccc(C(C)=O)cc2)cc(=O)n2cc(-c3ccc(Cl)cc3)nc12` [Compound 391], the IC50 lay within 10 to 100 nM. The result for `CCCCCn1c(-c2ccc(CO)cc2)cc(=O)n2cc(-c3ccc(Cl)cc3)nc12` [Compound 394] reads 10 to 100 nM. With `CCCCCn1c(-c2ccc(NS(C)(=O)=O)cc2)cc(=O)n2cc(-c3ccc(Cl)cc3)nc12` [Compound 401], the IC50 was 10 to 100 nM. For the compound `CCCCCn1c(-c2ccc(C(=O)N3CCCC3)cc2)cc(=O)n2cc(-c3ccc(Cl)cc3)nc12` [Compound 406], the IC50 was in the range of 100 to 1000 nM.

With `CCCCCn1c(-c2cccnc2)cc(=O)n2cc(-c3ccc(Cl)cc3)nc12` [Compound 407], the IC50 is 10 to 100 nM. With `CCCCCn1c(-c2cncnc2)cc(=O)n2cc(-c3ccc(Cl)cc3)nc12` [Compound 409], the IC50 was 10 to 100 nM. Turning to `CCCCCn1c(-c2ccc(S(=O)(=O)NCCO)cc2)cc(=O)n2cc(-c3ccc(Cl)cc3)nc12` [Compound 412], the IC50 is 10 to 100 nM. The result for `CCCCCn1c(-c2ccc(C(=O)NCCN(C)C)cc2)cc(=O)n2cc(-c3ccc(Cl)cc3)nc12` [Compound 413] reads 10 to 100 nM. The same measure for `CCCCCn1c(-c2cnn(CCN3CCOCC3)c2)cc(=O)n2cc(-c3ccc(Cl)cc3)nc12` [Compound 425]: 10 to 100 nM. `CCCCCn1c(-c2cc(NC(C)=O)cc(C(=O)O)c2)cc(=O)n2cc(-c3ccc(Cl)cc3)nc12` [Compound 427]: the IC50 was in the range of 10 to 100 nM. As for `CCCCCn1c(-c2cccc(C(=O)NCc3ccccc3)c2)cc(=O)n2cc(-c3ccc(Cl)cc3)nc12` [Compound 428], the IC50 lay in the range of 100 to 1000 nM. Consider `CCCCCn1c(-c2ccc(S(=O)(=O)O)cc2)cc(=O)n2cc(-c3ccc(Cl)cc3)nc12` [Compound 429], for which the IC50 was 10 to 100 nM.
